Source: patent publication US20080274892A1, “Novel Haloalkylsulfonanilide Derivative, Herbicide, and Method of Use Thereof” (priority 2005, published 2008)

Key:
[1] = tested on: paddy rice plant (cultivar: Nihonbare); test: Test Example 3: phytotoxicity test for transplanted paddy rice plant; type: in vivo; settings: dosage 1000 g/ha; transplanted rice, treated 5 days after transplantation; 21 days after treatment
In short: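 Clay loam soil was placed in a 75 cm^2 plastic pot and flooded to a water depth of 5 cm. Two Nihonbare paddy rice plants at the two-leaf stage were transplanted 1 cm deep and grown in a hot house. After treatment, pots stayed in the hot house for 21 days, and phytotoxicity was then graded against an untreated control.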

[2] = tested on: transplanted paddy rice plant and Bulrush; test: Test Example 5: selectivity between transplanted paddy rice plant and weeds; type: in vivo; settings: (highest dosage with no phytotoxicity to paddy rice)/(lowest dosage with effective level 4 on Bulrush); rice 3000-100 g/ha, Bulrush 300-10 g/ha; 21 days
In short: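 Transplanted paddy rice was treated at 3000, 1000, 300 and 100 g/ha active ingredient for phytotoxicity, and post-emergence bulrush at 300, 100, 30 and 10 g/ha. Plants were kept in a hothouse for 21 days. Growth inhibition versus untreated control was scored 0–4 (0%, 1–39%, 40–69%, 70–89%, 90–100%).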

[3] = tested on: barnyard glass; test: Test Example 2: herbicidal efficacy on rice paddy weeds post-emergence; type: in vivo, Echinochloa crus-galli; settings: dosage 1000 g/ha; post-emergence, one leaf stage; 21 days after treatment
In short: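 Plastic pots of 75 cm^2 were filled with clay loam soil and sown with barnyard glass and bulrush seeds, then topped with 75 cm^3 soil containing false pimpernel seeds. The pots were flooded to 5 cm water depth and held in a hot house. Twenty-one days after treatment, herbicidal efficacy was graded against an untreated control.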

[4] = tested on: false pimpernel; test: as above; type: in vivo, Lindernia pyxidaria; settings: dosage 1000 g/ha; post-emergence, one leaf stage; 21 days after treatment
[5] = tested on: false pimpernel; test: Test Example 1: herbicidal efficacy on rice paddy weeds pre-emergence; type: in vivo, Lindernia pyxidaria; settings: dosage 1000 g/ha, 21 days
[6] = tested on: bulrush; test: Test Example 2: herbicidal efficacy on rice paddy weeds post-emergence; type: in vivo, Scirpus juncoides; settings: dosage 1000 g/ha; post-emergence, one leaf stage; 21 days after treatment
[7] = tested on: bulrush; test: Test Example 4: low dosage test for rice paddy weeds; type: in vivo, Scirpus juncoides; settings: 300 g/ha as an active ingredient; plants treated at the one leaf stage; 21 days after treatment; vs untreated control
In short: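 Bulrush sown in clay loam pots, flooded to 5 cm water in a hot house, treated at the one-leaf stage with formulated compound at 300 g/ha. Efficacy scored 0–4 against untreated control 21 days after treatment (4 = 90–100%, 0 = 0% inhibition).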

[8] = tested on: bulrush; test: Test Example 1: herbicidal efficacy on rice paddy weeds pre-emergence; type: in vivo, Scirpus juncoides; settings: dosage 1000 g/ha, 21 days

CCCCOC(=O)N(c1ccccc1CN1CC(C)(C)OC1=O)S(=O)(=O)C(F)(F)F [1-63]
Phytotoxicity to paddy rice [1]: 2 (40%-69% of herbicidal efficacy or phytotoxicity) | Selective Index [2]: ≧30 | Burnyard grass post (herbicidal efficacy grade) [3]: 4 (90%-100% of herbicidal efficacy or phytotoxicity) | False pimpernel post (herbicidal efficacy grade) [4]: 4 (90%-100% of herbicidal efficacy or phytotoxicity) | False pimpernel pre (herbicidal efficacy grade) [5]: 4 (90%-100% of herbicidal efficacy or phytotoxicity) | Bulrush post (herbicidal efficacy grade) [6]: 4 (90%-100% of herbicidal efficacy or phytotoxicity) | Herbicide effect to Bulrush [7]: 4 (90%-100% of herbicidal efficacy or phytotoxicity) | Bulrush pre (herbicidal efficacy grade) [8]: 4 (90%-100% of herbicidal efficacy or phytotoxicity)

CCCCOC(=O)N(c1ccccc1CN1CC(C)(C(C)C)OC1=O)S(=O)(=O)C(F)(F)F (racemic) [1-117]
Phytotoxicity to paddy rice [1]: 2 (40%-69% of herbicidal efficacy or phytotoxicity) | Selective Index [2]: 10 | Burnyard grass post (herbicidal efficacy grade) [3]: 4 (90%-100% of herbicidal efficacy or phytotoxicity) | False pimpernel post (herbicidal efficacy grade) [4]: 4 (90%-100% of herbicidal efficacy or phytotoxicity) | False pimpernel pre (herbicidal efficacy grade) [5]: 4 (90%-100% of herbicidal efficacy or phytotoxicity) | Bulrush post (herbicidal efficacy grade) [6]: 4 (90%-100% of herbicidal efficacy or phytotoxicity) | Herbicide effect to Bulrush [7]: 4 (90%-100% of herbicidal efficacy or phytotoxicity) | Bulrush pre (herbicidal efficacy grade) [8]: 4 (90%-100% of herbicidal efficacy or phytotoxicity)

CCCOC(=O)N(c1ccccc1CN1CC(CC)(CC)OC1=O)S(=O)(=O)C(F)(F)F [1-98]
Phytotoxicity to paddy rice [1]: 1 (1%-39% of herbicidal efficacy or phytotoxicity) | Selective Index [2]: 10 | Burnyard grass post (herbicidal efficacy grade) [3]: 4 (90%-100% of herbicidal efficacy or phytotoxicity) | False pimpernel post (herbicidal efficacy grade) [4]: 4 (90%-100% of herbicidal efficacy or phytotoxicity) | False pimpernel pre (herbicidal efficacy grade) [5]: 4 (90%-100% of herbicidal efficacy or phytotoxicity) | Bulrush post (herbicidal efficacy grade) [6]: 4 (90%-100% of herbicidal efficacy or phytotoxicity) | Herbicide effect to Bulrush [7]: 4 (90%-100% of herbicidal efficacy or phytotoxicity) | Bulrush pre (herbicidal efficacy grade) [8]: 4 (90%-100% of herbicidal efficacy or phytotoxicity)

CCCOC(=O)N(c1ccccc1CN1CC(C)(C(C)C)OC1=O)S(=O)(=O)C(F)(F)F (racemic) [1-116]
Phytotoxicity to paddy rice [1]: 1 (1%-39% of herbicidal efficacy or phytotoxicity) | Selective Index [2]: 10 | Burnyard grass post (herbicidal efficacy grade) [3]: 4 (90%-100% of herbicidal efficacy or phytotoxicity) | False pimpernel post (herbicidal efficacy grade) [4]: 4 (90%-100% of herbicidal efficacy or phytotoxicity) | False pimpernel pre (herbicidal efficacy grade) [5]: 4 (90%-100% of herbicidal efficacy or phytotoxicity) | Bulrush post (herbicidal efficacy grade) [6]: 4 (90%-100% of herbicidal efficacy or phytotoxicity) | Herbicide effect to Bulrush [7]: 4 (90%-100% of herbicidal efficacy or phytotoxicity) | Bulrush pre (herbicidal efficacy grade) [8]: 4 (90%-100% of herbicidal efficacy or phytotoxicity)

CCC1(C(C)C)CN(Cc2ccccc2NS(=O)(=O)C(F)(F)F)C(=O)O1 (stereo not drawn) [1-131]
Phytotoxicity to paddy rice [1]: 2 (40%-69% of herbicidal efficacy or phytotoxicity) | Selective Index [2]: 10 | Burnyard grass post (herbicidal efficacy grade) [3]: 4 (90%-100% of herbicidal efficacy or phytotoxicity) | False pimpernel post (herbicidal efficacy grade) [4]: 4 (90%-100% of herbicidal efficacy or phytotoxicity) | False pimpernel pre (herbicidal efficacy grade) [5]: 4 (90%-100% of herbicidal efficacy or phytotoxicity) | Bulrush post (herbicidal efficacy grade) [6]: 4 (90%-100% of herbicidal efficacy or phytotoxicity) | Herbicide effect to Bulrush [7]: 4 (90%-100% of herbicidal efficacy or phytotoxicity) | Bulrush pre (herbicidal efficacy grade) [8]: 4 (90%-100% of herbicidal efficacy or phytotoxicity)

CCC1(C)CN(Cc2ccccc2N(C(=O)OCC(C)(C)C)S(=O)(=O)C(F)(F)F)C(=O)O1 (racemic) [1-105]
Phytotoxicity to paddy rice [1]: 1 (1%-39% of herbicidal efficacy or phytotoxicity) | Selective Index [2]: 10 | Burnyard grass post (herbicidal efficacy grade) [3]: 4 (90%-100% of herbicidal efficacy or phytotoxicity) | False pimpernel post (herbicidal efficacy grade) [4]: 4 (90%-100% of herbicidal efficacy or phytotoxicity) | False pimpernel pre (herbicidal efficacy grade) [5]: 4 (90%-100% of herbicidal efficacy or phytotoxicity) | Bulrush post (herbicidal efficacy grade) [6]: 4 (90%-100% of herbicidal efficacy or phytotoxicity) | Herbicide effect to Bulrush [7]: 4 (90%-100% of herbicidal efficacy or phytotoxicity) | Bulrush pre (herbicidal efficacy grade) [8]: 4 (90%-100% of herbicidal efficacy or phytotoxicity)

CCCCC(CC)COC(=O)N(c1ccccc1CN1CC(C)(C)OC1=O)S(=O)(=O)C(F)(F)F (stereo not drawn) [1-68]
Phytotoxicity to paddy rice [1]: 1 (1%-39% of herbicidal efficacy or phytotoxicity) | Selective Index [2]: 10 | Burnyard grass post (herbicidal efficacy grade) [3]: 4 (90%-100% of herbicidal efficacy or phytotoxicity) | False pimpernel post (herbicidal efficacy grade) [4]: 4 (90%-100% of herbicidal efficacy or phytotoxicity) | False pimpernel pre (herbicidal efficacy grade) [5]: 4 (90%-100% of herbicidal efficacy or phytotoxicity) | Bulrush post (herbicidal efficacy grade) [6]: 4 (90%-100% of herbicidal efficacy or phytotoxicity) | Herbicide effect to Bulrush [7]: 4 (90%-100% of herbicidal efficacy or phytotoxicity) | Bulrush pre (herbicidal efficacy grade) [8]: 4 (90%-100% of herbicidal efficacy or phytotoxicity)

CCC1CN(Cc2ccccc2N(C(=O)CC(C)C)S(=O)(=O)C(F)(F)F)C(=O)O1 (racemic) [1-53]
Phytotoxicity to paddy rice [1]: 0 (0% of herbicidal efficacy or phytotoxicity) | Selective Index [2]: 10 | Burnyard grass post (herbicidal efficacy grade) [3]: 4 (90%-100% of herbicidal efficacy or phytotoxicity) | False pimpernel post (herbicidal efficacy grade) [4]: 4 (90%-100% of herbicidal efficacy or phytotoxicity) | False pimpernel pre (herbicidal efficacy grade) [5]: 4 (90%-100% of herbicidal efficacy or phytotoxicity) | Bulrush post (herbicidal efficacy grade) [6]: 4 (90%-100% of herbicidal efficacy or phytotoxicity) | Herbicide effect to Bulrush [7]: 3 (70%-89% of herbicidal efficacy or phytotoxicity) | Bulrush pre (herbicidal efficacy grade) [8]: 4 (90%-100% of herbicidal efficacy or phytotoxicity)

COCC1(C)CN(Cc2ccccc2N(C(=O)OCC(C)(C)C)S(=O)(=O)C(F)(F)F)C(=O)O1 (stereo not drawn) [1-146]
Phytotoxicity to paddy rice [1]: 1 (1%-39% of herbicidal efficacy or phytotoxicity) | Selective Index [2]: 10 | Burnyard grass post (herbicidal efficacy grade) [3]: 4 (90%-100% of herbicidal efficacy or phytotoxicity) | False pimpernel post (herbicidal efficacy grade) [4]: 4 (90%-100% of herbicidal efficacy or phytotoxicity) | False pimpernel pre (herbicidal efficacy grade) [5]: 4 (90%-100% of herbicidal efficacy or phytotoxicity) | Bulrush post (herbicidal efficacy grade) [6]: 4 (90%-100% of herbicidal efficacy or phytotoxicity) | Herbicide effect to Bulrush [7]: 4 (90%-100% of herbicidal efficacy or phytotoxicity) | Bulrush pre (herbicidal efficacy grade) [8]: 4 (90%-100% of herbicidal efficacy or phytotoxicity)

CCCC1(CC)CN(Cc2ccccc2N(C(=O)OC)S(=O)(=O)C(F)(F)F)C(=O)O1 (stereo not drawn) [1-144]
Phytotoxicity to paddy rice [1]: 1 (1%-39% of herbicidal efficacy or phytotoxicity) | Selective Index [2]: 10 | Burnyard grass post (herbicidal efficacy grade) [3]: 4 (90%-100% of herbicidal efficacy or phytotoxicity) | False pimpernel post (herbicidal efficacy grade) [4]: 4 (90%-100% of herbicidal efficacy or phytotoxicity) | False pimpernel pre (herbicidal efficacy grade) [5]: 4 (90%-100% of herbicidal efficacy or phytotoxicity) | Bulrush post (herbicidal efficacy grade) [6]: 4 (90%-100% of herbicidal efficacy or phytotoxicity) | Herbicide effect to Bulrush [7]: 4 (90%-100% of herbicidal efficacy or phytotoxicity) | Bulrush pre (herbicidal efficacy grade) [8]: 4 (90%-100% of herbicidal efficacy or phytotoxicity)

CC(C)COC(=O)N(c1ccccc1CN1C(=O)OC(C)(C)C1C)S(=O)(=O)C(F)(F)F (stereo not drawn) [1-95]
Phytotoxicity to paddy rice [1]: 3 (70%-89% of herbicidal efficacy or phytotoxicity) | Selective Index [2]: 30 | Burnyard grass post (herbicidal efficacy grade) [3]: 4 (90%-100% of herbicidal efficacy or phytotoxicity) | False pimpernel post (herbicidal efficacy grade) [4]: 4 (90%-100% of herbicidal efficacy or phytotoxicity) | False pimpernel pre (herbicidal efficacy grade) [5]: 4 (90%-100% of herbicidal efficacy or phytotoxicity) | Bulrush post (herbicidal efficacy grade) [6]: 4 (90%-100% of herbicidal efficacy or phytotoxicity) | Herbicide effect to Bulrush [7]: 4 (90%-100% of herbicidal efficacy or phytotoxicity) | Bulrush pre (herbicidal efficacy grade) [8]: 4 (90%-100% of herbicidal efficacy or phytotoxicity)

CC(C)C1(C)CN(Cc2ccccc2NS(=O)(=O)C(F)(F)F)C(=O)O1 (racemic) [1-101]
Phytotoxicity to paddy rice [1]: 1 (1%-39% of herbicidal efficacy or phytotoxicity) | Selective Index [2]: 10 | Burnyard grass post (herbicidal efficacy grade) [3]: 4 (90%-100% of herbicidal efficacy or phytotoxicity) | False pimpernel post (herbicidal efficacy grade) [4]: 4 (90%-100% of herbicidal efficacy or phytotoxicity) | False pimpernel pre (herbicidal efficacy grade) [5]: 4 (90%-100% of herbicidal efficacy or phytotoxicity) | Bulrush post (herbicidal efficacy grade) [6]: 4 (90%-100% of herbicidal efficacy or phytotoxicity) | Herbicide effect to Bulrush [7]: 4 (90%-100% of herbicidal efficacy or phytotoxicity) | Bulrush pre (herbicidal efficacy grade) [8]: 4 (90%-100% of herbicidal efficacy or phytotoxicity)
